Earlier results in patent US20020165233A1, “Quinoxaline containing medicaments for post exposure prophylaxis of an HIV infection” (priority 1999, published 2002).

Experiments:
HIV-1 = settings: inhibitor given 1 hr before challenge, continued 20-30 weeks post challenge; cited from earlier work
SIV = settings: administration 48 h before, 4 h after and 24 h after virus inoculation for 4 weeks; observed 56 weeks; cited from earlier work
RT-SHIV = RT-SHIV infected rhesus monkeys; cited from earlier work
HIV [1] = settings: cited from earlier work
HIV [2] = settings: prophylaxis with only zidovudine; case-control study; cited from earlier work

Structure (SMILES): CCc1cc(CCc2nc3ccccc3o2)c(=O)[nH]c1C [L-696,229]
- outcome of prophylaxis in treated animals (HIV-1): developed delayed infections

Structure (SMILES): C[C@H](Cn1cnc2c(N)ncnc21)OCP(=O)(O)O [PMPA]
- protection against SIV infection (SIV): full protection
- effect of post exposure prophylaxis (PEP) (RT-SHIV): vaccination effect protecting the animals against wild-type challenge

Structure (SMILES): Cc1cn([C@H]2C[C@H](N=[N+]=[N-])[C@@H](CO)O2)c(=O)[nH]c1=O [zidovudine]
- suppression (change in viremia) (HIV [1]; after 7 days of treatment at 1000 mg per day (Loveday et al)): 1 log
- mean initial suppression (HIV [1]; conventionally used antiviral agents given alone): ≤ 1 log
- protective effect of prophylaxis (HIV [2]): 80%
